Results on four compounds are retold here after US20090163571A1, “PHARMACEUTICAL FOR USE IN THE TREATMENT OF URETEROLITHIASIS” (KISSEI PHARMACEUTICAL CO., LTD, priority 2005, published 2009).

A word on the pA2: it is a measure of antagonist potency on a negative log scale. Low values mean a weaker antagonist, high ones a more potent antagonist.

The test system of one data set is isolated hamster ureter. The experiment in a line: Inhibition of phenylephrine-induced contraction of isolated hamster ureter (organ bath). Particulars: for pA2: against phenylephrine concentration-response curve.
The conditions of data set [1]: anesthetized dogs; compared with the compound of general formula (I); cited from earlier work.

Counter-ions that a name gives are not always drawn.

As for `CCOc1ccccc1OCCN[C@H](C)Cc1ccc(OC)c(S(N)(=O)=O)c1` [tamsulosin hydrochloride], in the data set with isolated hamster ureter, the pA2 is 9.85. Further, the “decrease of blood pressure” value in data set [1] was “decreases blood pressure more strongly than the compound represented by the above general formula (I)”.

For the compound `COc1ccccc1N1CCN(CCN2C(=O)CC3(CCCC3)CC2=O)CC1` [BMY-7378], the pA2 with isolated hamster ureter amounted to 5.75.

In the data set with isolated hamster ureter, `COc1ccccc1N1CCN(CC(O)COc2cccc3ccccc23)CC1` (stereo not drawn) [naftopidil] showed a pA2 of 6.54.

Regarding `C[C@H](Cc1cc2c(c(C(N)=O)c1)N(CCCO)CC2)NCCOc1ccccc1OCC(F)(F)F` [Compound 1, (−)-1-(3-hydroxypropyl)-5-((2R)-2-{[2-((2-[(2,2,2-trifluoroethyl)oxy]phenyl)oxy)ethyl]amino}propyl)-2,3-dihydro-1H-indole-7-carboxamide], the “inhibitory effect against phenylephrine induced ureteral contraction (shift of concentration-response curve)” value in the data set on isolated hamster ureter (3×10^−10, 1×10^−9, 3×10^−9 mol/L, about 30 min pretreatment) was “caused concentration-dependently a parallel rightward shift of the concentration-response curve for phenylephrine”. The same compound showed a pA2 with isolated hamster ureter of 9.44.
